Results from the kinase profiling compilation of Christmann-Franck et al. (2016).

Tests used:
Experiment in all cases: radiometric filter-binding kinase assay, Kinase HotSpot
Details in all cases: compound 0.5 µM; ATP 10 µM
MAPK1 (human) = MAPK1 (human) (UniProt P28482)
ABL2 (human) = ABL2 (human) (UniProt P42684)
DCLK2 (human) = DCLK2 (human) (UniProt Q8N568)
PKN2 (human) = PKN2 (human) (UniProt Q16513)
MARK4 (human) = MARK4 (human) (UniProt Q96L34)
PRKD3 (human) = PRKD3 (human) (UniProt O94806)
PRKD2 (human) = PRKD2 (human) (UniProt Q9BZL6)
MAPK11 (human) = MAPK11 (human) (UniProt Q15759)
Sequence of MAPK11 (human) (Q15759 whole entry, looked up): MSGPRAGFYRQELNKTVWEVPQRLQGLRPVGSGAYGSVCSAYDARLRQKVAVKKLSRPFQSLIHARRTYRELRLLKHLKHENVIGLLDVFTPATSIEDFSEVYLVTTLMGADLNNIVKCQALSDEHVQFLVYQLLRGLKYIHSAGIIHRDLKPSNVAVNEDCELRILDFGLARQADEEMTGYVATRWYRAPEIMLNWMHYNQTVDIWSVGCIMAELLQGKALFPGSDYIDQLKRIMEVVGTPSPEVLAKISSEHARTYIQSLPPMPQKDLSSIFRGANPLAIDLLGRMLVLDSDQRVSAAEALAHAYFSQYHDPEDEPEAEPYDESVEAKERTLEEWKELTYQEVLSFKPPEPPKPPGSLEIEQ

SRPK3 (human) = SRPK3 (human) (UniProt Q9UPE1)
Sequence of SRPK3 (human) (Q9UPE1 whole entry, looked up): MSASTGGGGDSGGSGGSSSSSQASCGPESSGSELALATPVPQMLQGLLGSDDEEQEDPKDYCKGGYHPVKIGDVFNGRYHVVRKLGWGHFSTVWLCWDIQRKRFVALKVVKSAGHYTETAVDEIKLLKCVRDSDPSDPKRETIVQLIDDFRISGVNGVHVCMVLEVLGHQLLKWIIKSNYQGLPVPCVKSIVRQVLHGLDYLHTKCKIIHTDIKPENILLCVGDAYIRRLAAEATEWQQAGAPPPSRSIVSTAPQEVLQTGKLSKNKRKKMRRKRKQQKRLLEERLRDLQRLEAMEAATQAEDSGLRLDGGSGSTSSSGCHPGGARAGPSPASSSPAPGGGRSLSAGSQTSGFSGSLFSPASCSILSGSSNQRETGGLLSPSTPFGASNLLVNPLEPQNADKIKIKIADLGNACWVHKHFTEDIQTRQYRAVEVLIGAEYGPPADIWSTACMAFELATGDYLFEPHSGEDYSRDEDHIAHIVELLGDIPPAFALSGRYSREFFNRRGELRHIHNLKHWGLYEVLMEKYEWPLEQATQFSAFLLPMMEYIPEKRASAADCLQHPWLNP

DMPK (human) = DMPK (human) (UniProt Q09013)
SGK3 (human) = SGK3 (human) (UniProt Q96BR1)
ACVR1 (human) = ACVR1 (human) (UniProt Q04771)
Sequence of ACVR1 (human) (Q04771 whole entry, looked up): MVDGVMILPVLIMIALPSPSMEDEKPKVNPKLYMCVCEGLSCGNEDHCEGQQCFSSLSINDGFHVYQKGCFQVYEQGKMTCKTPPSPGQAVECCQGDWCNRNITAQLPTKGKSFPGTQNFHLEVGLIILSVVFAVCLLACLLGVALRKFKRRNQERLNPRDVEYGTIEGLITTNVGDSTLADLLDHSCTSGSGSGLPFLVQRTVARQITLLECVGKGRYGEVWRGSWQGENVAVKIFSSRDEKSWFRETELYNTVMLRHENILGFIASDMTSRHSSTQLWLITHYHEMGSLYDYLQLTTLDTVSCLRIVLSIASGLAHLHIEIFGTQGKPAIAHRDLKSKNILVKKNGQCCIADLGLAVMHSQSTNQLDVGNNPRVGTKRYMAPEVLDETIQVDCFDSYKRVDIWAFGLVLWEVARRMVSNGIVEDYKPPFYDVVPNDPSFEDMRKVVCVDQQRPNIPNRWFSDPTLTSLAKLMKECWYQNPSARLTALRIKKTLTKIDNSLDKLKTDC

NEK11 (human) = NEK11 (human) (UniProt Q8NG66)
HIPK3 (human) = HIPK3 (human) (UniProt Q9H422)
STK17A (human) = STK17A (human) (UniProt Q9UEE5)
MAP3K9 (human) = MAP3K9 (human) (UniProt P80192)
ADRBK1 (human) = ADRBK1 (human) (UniProt P25098)
INSR (human) = INSR (human) (UniProt P06213)
CDK5 CDK5R1 p35 (human) = CDK5 CDK5R1 p35 (human) (UniProt Q00535+Q15078)
AURKA (human) = AURKA (human) (UniProt O14965)
Sequence of AURKA (human) (O14965 whole entry, looked up): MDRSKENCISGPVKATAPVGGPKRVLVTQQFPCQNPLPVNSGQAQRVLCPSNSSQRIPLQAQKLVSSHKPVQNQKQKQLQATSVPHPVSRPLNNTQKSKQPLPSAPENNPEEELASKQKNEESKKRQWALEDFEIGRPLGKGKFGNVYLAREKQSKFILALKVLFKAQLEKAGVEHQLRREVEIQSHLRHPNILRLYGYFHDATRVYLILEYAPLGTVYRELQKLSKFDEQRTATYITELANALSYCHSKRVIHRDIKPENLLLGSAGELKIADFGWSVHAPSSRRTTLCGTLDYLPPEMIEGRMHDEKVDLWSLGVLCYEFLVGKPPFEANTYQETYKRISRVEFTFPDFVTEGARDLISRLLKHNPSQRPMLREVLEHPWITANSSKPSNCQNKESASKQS

PDGFRB (human) = PDGFRB (human) (UniProt P09619)
DYRK1B (human) = DYRK1B (human) (UniProt Q9Y463)
EPHB3 (human) = EPHB3 (human) (UniProt P54753)
CDK5 CDK5R1 p25 (human) = CDK5 CDK5R1 p25 (human) (UniProt Q00535+Q15078)
STK16 (human) = STK16 (human) (UniProt O75716)
MYLK2 (human) = MYLK2 (human) (UniProt Q9H1R3)
Sequence of MYLK2 (human) (Q9H1R3 whole entry, looked up): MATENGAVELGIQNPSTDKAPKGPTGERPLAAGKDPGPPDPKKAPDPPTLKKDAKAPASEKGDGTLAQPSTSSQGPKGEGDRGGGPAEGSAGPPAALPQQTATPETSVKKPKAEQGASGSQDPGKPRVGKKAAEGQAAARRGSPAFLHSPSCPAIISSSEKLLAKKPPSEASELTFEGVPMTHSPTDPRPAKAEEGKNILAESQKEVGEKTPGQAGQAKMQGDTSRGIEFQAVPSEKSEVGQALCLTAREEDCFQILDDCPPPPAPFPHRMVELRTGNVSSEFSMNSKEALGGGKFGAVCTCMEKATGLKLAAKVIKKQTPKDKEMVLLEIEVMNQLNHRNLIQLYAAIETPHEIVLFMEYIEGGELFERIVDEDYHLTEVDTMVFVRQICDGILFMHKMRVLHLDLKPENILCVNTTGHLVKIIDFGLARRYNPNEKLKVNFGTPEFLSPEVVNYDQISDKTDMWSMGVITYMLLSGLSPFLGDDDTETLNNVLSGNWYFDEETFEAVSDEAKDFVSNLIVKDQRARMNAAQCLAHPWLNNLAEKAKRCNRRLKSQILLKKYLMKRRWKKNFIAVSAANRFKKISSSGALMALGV

EPHB1 (human) = EPHB1 (human) (UniProt P54762)
BMX (human) = BMX (human) (UniProt P51813)
Sequence of BMX (human) (P51813 whole entry, looked up): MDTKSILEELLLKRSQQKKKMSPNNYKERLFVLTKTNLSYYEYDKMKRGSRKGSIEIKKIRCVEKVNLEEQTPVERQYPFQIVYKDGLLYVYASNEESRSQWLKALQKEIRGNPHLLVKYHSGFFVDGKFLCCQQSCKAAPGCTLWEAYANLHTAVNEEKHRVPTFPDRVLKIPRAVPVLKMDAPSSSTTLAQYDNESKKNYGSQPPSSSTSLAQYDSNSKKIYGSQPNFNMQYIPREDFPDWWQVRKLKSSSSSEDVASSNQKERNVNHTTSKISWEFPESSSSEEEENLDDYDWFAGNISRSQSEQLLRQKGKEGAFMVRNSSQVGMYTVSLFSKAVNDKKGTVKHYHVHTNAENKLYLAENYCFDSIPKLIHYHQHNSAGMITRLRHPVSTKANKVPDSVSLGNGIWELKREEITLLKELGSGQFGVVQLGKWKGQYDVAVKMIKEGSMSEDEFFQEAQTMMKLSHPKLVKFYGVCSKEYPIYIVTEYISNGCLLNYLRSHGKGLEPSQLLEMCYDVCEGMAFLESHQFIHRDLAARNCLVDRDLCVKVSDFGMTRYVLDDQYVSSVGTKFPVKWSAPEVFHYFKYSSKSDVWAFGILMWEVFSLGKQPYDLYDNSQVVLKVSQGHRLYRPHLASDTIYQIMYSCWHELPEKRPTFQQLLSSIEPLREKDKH

FER (human) = FER (human) (UniProt P16591)
MET (human) = MET (human) (UniProt P08581)
Sequence of MET (human) (P08581 whole entry, looked up): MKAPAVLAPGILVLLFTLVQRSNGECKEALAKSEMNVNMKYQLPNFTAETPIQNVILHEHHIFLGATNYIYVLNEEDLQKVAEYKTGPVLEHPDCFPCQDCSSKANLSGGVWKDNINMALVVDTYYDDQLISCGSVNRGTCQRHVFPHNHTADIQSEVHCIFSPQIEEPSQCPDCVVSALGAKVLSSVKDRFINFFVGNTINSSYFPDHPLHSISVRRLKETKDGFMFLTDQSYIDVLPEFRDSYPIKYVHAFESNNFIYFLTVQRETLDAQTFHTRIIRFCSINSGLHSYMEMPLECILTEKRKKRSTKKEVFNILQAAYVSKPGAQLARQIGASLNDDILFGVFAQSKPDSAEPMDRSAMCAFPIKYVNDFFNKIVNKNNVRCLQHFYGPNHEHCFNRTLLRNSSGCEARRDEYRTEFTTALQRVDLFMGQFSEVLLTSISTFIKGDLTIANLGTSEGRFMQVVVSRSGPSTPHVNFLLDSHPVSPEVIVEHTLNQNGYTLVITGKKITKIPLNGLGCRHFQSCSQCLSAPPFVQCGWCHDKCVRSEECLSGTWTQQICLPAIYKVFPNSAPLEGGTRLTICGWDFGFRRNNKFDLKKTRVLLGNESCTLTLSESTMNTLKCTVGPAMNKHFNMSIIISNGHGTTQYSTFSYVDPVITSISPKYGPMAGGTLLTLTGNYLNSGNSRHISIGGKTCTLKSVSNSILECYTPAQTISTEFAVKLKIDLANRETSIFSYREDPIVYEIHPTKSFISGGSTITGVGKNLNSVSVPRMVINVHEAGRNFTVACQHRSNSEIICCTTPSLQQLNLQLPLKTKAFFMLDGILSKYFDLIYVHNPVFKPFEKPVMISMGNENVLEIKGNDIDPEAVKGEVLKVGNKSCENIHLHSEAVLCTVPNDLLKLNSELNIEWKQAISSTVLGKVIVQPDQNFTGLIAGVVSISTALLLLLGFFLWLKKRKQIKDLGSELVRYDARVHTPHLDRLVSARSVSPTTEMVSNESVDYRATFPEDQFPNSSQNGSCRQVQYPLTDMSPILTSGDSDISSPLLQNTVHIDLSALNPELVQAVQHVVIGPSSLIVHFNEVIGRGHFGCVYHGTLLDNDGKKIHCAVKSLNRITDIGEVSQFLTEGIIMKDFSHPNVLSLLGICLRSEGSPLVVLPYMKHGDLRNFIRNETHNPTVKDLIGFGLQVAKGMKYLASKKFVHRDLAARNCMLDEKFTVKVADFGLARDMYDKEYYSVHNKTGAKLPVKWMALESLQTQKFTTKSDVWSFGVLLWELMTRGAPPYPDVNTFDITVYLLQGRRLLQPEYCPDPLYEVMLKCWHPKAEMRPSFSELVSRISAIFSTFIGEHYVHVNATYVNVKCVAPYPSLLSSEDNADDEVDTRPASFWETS

OXSR1 (human) = OXSR1 (human) (UniProt O95747)
STK4 (human) = STK4 (human) (UniProt Q13043)
EPHA7 (human) = EPHA7 (human) (UniProt Q15375)
CLK1 (human) = CLK1 (human) (UniProt P49759)
SIK2 (human) = SIK2 (human) (UniProt Q9H0K1)
IKBKB (human) = IKBKB (human) (UniProt O14920)
YES1 (human) = YES1 (human) (UniProt P07947)
Sequence of YES1 (human) (P07947 whole entry, looked up): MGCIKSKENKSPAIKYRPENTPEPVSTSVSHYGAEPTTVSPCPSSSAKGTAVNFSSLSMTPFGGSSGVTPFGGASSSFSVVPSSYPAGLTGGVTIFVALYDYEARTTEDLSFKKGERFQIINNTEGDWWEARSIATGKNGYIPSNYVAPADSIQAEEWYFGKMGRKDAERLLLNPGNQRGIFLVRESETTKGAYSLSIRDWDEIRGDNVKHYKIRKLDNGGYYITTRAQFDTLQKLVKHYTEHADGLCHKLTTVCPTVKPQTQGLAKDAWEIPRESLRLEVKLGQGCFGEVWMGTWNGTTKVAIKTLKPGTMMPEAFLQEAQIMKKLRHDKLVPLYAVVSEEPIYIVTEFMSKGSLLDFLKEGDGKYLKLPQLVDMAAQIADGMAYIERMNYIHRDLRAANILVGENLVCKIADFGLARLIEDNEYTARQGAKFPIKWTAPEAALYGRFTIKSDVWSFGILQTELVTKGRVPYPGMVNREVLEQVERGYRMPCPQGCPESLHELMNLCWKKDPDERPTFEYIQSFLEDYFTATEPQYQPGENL

CDK9 CCNK (human) = CDK9 CCNK (human) (UniProt O75909+P50750)
CSNK1G3 (human) = CSNK1G3 (human) (UniProt Q9Y6M4)
BRSK1 (human) = BRSK1 (human) (UniProt Q8TDC3)
[1] = system: MKNK1 (human), Q9BUB5 [T385D; 165-205 del]
NEK3 (human) = NEK3 (human) (UniProt P51956)

## NC(=O)c1cccc(-c2cc(Nc3ccc(OC(F)(F)F)cc3)ncn2)c1
MAPK1 (human)
  residual activity: 96.6%
ABL2 (human)
  residual activity: 106%
DCLK2 (human)
  residual activity: 104%
PKN2 (human)
  residual activity: 89.8%
MARK4 (human)
  residual activity: 98.1%
PRKD3 (human)
  residual activity: 93.2%
PRKD2 (human)
  residual activity: 102%
MAPK11 (human)
  residual activity: 105%
SRPK3 (human)
  residual activity: 94.3%
DMPK (human)
  residual activity: 96.1%
SGK3 (human)
  residual activity: 104%
ACVR1 (human)
  residual activity: 99.4%
NEK11 (human)
  residual activity: 98.3%
HIPK3 (human)
  residual activity: 104%
STK17A (human)
  residual activity: 98.7%
MAP3K9 (human)
  residual activity: 95.7%
ADRBK1 (human)
  residual activity: 96.1%
INSR (human)
  residual activity: 105%
CDK5 CDK5R1 p35 (human)
  residual activity: 96%
AURKA (human)
  residual activity: 107%
PDGFRB (human)
  residual activity: 94.8%
DYRK1B (human)
  residual activity: 97.9%
EPHB3 (human)
  residual activity: 98%
CDK5 CDK5R1 p25 (human)
  residual activity: 80.1%
STK16 (human)
  residual activity: 81.8%
MYLK2 (human)
  residual activity: 97.1%
EPHB1 (human)
  residual activity: 105%
BMX (human)
  residual activity: 107%
FER (human)
  residual activity: 105%
MET (human)
  residual activity: 135%
OXSR1 (human)
  residual activity: 97.9%
STK4 (human)
  residual activity: 88.7%
EPHA7 (human)
  residual activity: 99.1%
CLK1 (human)
  residual activity: 115%
SIK2 (human)
  residual activity: 108%
IKBKB (human)
  residual activity: 98.6%
YES1 (human)
  residual activity: 87.4%
CDK9 CCNK (human)
  residual activity: 106%
CSNK1G3 (human)
  residual activity: 93.4%
BRSK1 (human)
  residual activity: 98.4%
[1]
  residual activity: 95.9%
NEK3 (human)
  residual activity: 121%

## CN(C)c1ccc(/C=C2\C(=O)Nc3ccccc32)cc1
MAPK1 (human)
  residual activity: 96.4%
ABL2 (human)
  residual activity: 100%
DCLK2 (human)
  residual activity: 100%
PKN2 (human)
  residual activity: 98.9%
MARK4 (human)
  residual activity: 97%
PRKD3 (human)
  residual activity: 99.2%
PRKD2 (human)
  residual activity: 95.2%
MAPK11 (human)
  residual activity: 93.5%
SRPK3 (human)
  residual activity: 98.7%
DMPK (human)
  residual activity: 105%
SGK3 (human)
  residual activity: 107%
ACVR1 (human)
  residual activity: 104%
NEK11 (human)
  residual activity: 96.4%
HIPK3 (human)
  residual activity: 94.4%
STK17A (human)
  residual activity: 93.8%
MAP3K9 (human)
  residual activity: 90.2%
ADRBK1 (human)
  residual activity: 101%
INSR (human)
  residual activity: 93.4%
CDK5 CDK5R1 p35 (human)
  residual activity: 104%
AURKA (human)
  residual activity: 104%
PDGFRB (human)
  residual activity: 85.8%
DYRK1B (human)
  residual activity: 106%
EPHB3 (human)
  residual activity: 94.9%
CDK5 CDK5R1 p25 (human)
  residual activity: 102%
STK16 (human)
  residual activity: 87.9%
MYLK2 (human)
  residual activity: 82.6%
EPHB1 (human)
  residual activity: 102%
BMX (human)
  residual activity: 92.2%
FER (human)
  residual activity: 94.5%
MET (human)
  residual activity: 101%
OXSR1 (human)
  residual activity: 106%
STK4 (human)
  residual activity: 93.2%
EPHA7 (human)
  residual activity: 99.1%
CLK1 (human)
  residual activity: 103%
SIK2 (human)
  residual activity: 101%
IKBKB (human)
  residual activity: 105%
YES1 (human)
  residual activity: 89.3%
CDK9 CCNK (human)
  residual activity: 100%
CSNK1G3 (human)
  residual activity: 101%
BRSK1 (human)
  residual activity: 99.6%
[1]
  residual activity: 97.3%
NEK3 (human)
  residual activity: 95.2%

## Cc1cccc(-c2nc(C(C)(C)C)[nH]c2-c2ccc3c(c2)OCO3)n1
MAPK1 (human)
  residual activity: 95.8%
ABL2 (human)
  residual activity: 95.7%
DCLK2 (human)
  residual activity: 101%
PKN2 (human)
  residual activity: 93.5%
MARK4 (human)
  residual activity: 99.7%
PRKD3 (human)
  residual activity: 89.3%
PRKD2 (human)
  residual activity: 93.6%
MAPK11 (human)
  residual activity: 93%
SRPK3 (human)
  residual activity: 95.1%
DMPK (human)
  residual activity: 102%
SGK3 (human)
  residual activity: 98%
ACVR1 (human)
  residual activity: 96.4%
NEK11 (human)
  residual activity: 90.3%
STK17A (human)
  residual activity: 84.1%
MAP3K9 (human)
  residual activity: 94%
ADRBK1 (human)
  residual activity: 105%
INSR (human)
  residual activity: 87.6%
CDK5 CDK5R1 p35 (human)
  residual activity: 98.5%
AURKA (human)
  residual activity: 93.4%
PDGFRB (human)
  residual activity: 106%
DYRK1B (human)
  residual activity: 99.6%
EPHB3 (human)
  residual activity: 103%
CDK5 CDK5R1 p25 (human)
  residual activity: 90.1%
STK16 (human)
  residual activity: 90.1%
MYLK2 (human)
  residual activity: 99.2%
EPHB1 (human)
  residual activity: 95.5%
BMX (human)
  residual activity: 82%
FER (human)
  residual activity: 85.4%
MET (human)
  residual activity: 82.7%
OXSR1 (human)
  residual activity: 103%
STK4 (human)
  residual activity: 98.7%
EPHA7 (human)
  residual activity: 81.6%
CLK1 (human)
  residual activity: 98%
SIK2 (human)
  residual activity: 91.4%
IKBKB (human)
  residual activity: 105%
YES1 (human)
  residual activity: 97%
CDK9 CCNK (human)
  residual activity: 106%
CSNK1G3 (human)
  residual activity: 102%
BRSK1 (human)
  residual activity: 101%
[1]
  residual activity: 86.8%
NEK3 (human)
  residual activity: 85.6%

## COc1cc2ncnc(Nc3ccc(Oc4ccccc4)cc3)c2cc1OC
MAPK1 (human)
  residual activity: 99.8%
ABL2 (human)
  residual activity: 96.4%
DCLK2 (human)
  residual activity: 99.5%
PKN2 (human)
  residual activity: 93.6%
MARK4 (human)
  residual activity: 105%
PRKD3 (human)
  residual activity: 95.8%
PRKD2 (human)
  residual activity: 100%
MAPK11 (human)
  residual activity: 105%
SRPK3 (human)
  residual activity: 94.8%
DMPK (human)
  residual activity: 106%
SGK3 (human)
  residual activity: 101%
ACVR1 (human)
  residual activity: 93.7%
NEK11 (human)
  residual activity: 74.8%
HIPK3 (human)
  residual activity: 103%
STK17A (human)
  residual activity: 96.3%
MAP3K9 (human)
  residual activity: 57.7%
ADRBK1 (human)
  residual activity: 101%
INSR (human)
  residual activity: 88.8%
CDK5 CDK5R1 p35 (human)
  residual activity: 115%
AURKA (human)
  residual activity: 79.2%
PDGFRB (human)
  residual activity: 95.6%
DYRK1B (human)
  residual activity: 97%
EPHB3 (human)
  residual activity: 103%
CDK5 CDK5R1 p25 (human)
  residual activity: 88.8%
STK16 (human)
  residual activity: 107%
MYLK2 (human)
  residual activity: 101%
EPHB1 (human)
  residual activity: 108%
BMX (human)
  residual activity: 76.1%
FER (human)
  residual activity: 75.7%
OXSR1 (human)
  residual activity: 97.5%
STK4 (human)
  residual activity: 107%
EPHA7 (human)
  residual activity: 100%
CLK1 (human)
  residual activity: 100%
SIK2 (human)
  residual activity: 97.7%
IKBKB (human)
  residual activity: 106%
YES1 (human)
  residual activity: 7.96%
CDK9 CCNK (human)
  residual activity: 96.7%
CSNK1G3 (human)
  residual activity: 99.4%
BRSK1 (human)
  residual activity: 98.7%
[1]
  residual activity: 98.9%
NEK3 (human)
  residual activity: 98.4%
